{"source": "patent EP1345943B1", "about": "“INHIBITORS OF PAPILLOMA VIRUS” (BOEHRINGER INGELHEIM (CANADA) LTD., priority 2000, dated 2002)"}
{"target": "E1-E2-DNA complex (Human papillomavirus 11, UniProt P04015)", "sequence (P04015 whole entry, one chain of several)": "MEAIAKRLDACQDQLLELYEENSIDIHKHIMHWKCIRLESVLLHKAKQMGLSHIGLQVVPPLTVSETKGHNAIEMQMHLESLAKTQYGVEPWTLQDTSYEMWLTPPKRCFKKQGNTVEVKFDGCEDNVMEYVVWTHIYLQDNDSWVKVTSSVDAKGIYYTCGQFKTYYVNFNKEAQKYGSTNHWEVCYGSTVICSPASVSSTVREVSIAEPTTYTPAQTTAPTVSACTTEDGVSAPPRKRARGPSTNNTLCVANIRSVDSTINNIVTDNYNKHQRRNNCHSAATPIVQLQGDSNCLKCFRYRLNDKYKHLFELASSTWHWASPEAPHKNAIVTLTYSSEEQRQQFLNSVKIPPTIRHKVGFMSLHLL", "test": "E2-dependent E1 DNA binding assay (E1-E2 DNA assay)", "conditions": "E1-E2 DNA assay of Example 11, HPV-11", "how_it_was_run": "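SPA-format binding of E1 (about 100-200 ng purified) and E2 (8 ng) to a 0.4 ng [33P]-labelled 400 bp HPV-11 origin probe, in 20 mM Tris pH 7.6, 100 mM NaCl, 1 mM DTT, 1 mM EDTA, for 1 h at room temperature. Complex captured 1 h with anti-E1 C-terminal antiserum on protein A-SPA beads and counted by scintillation; IC50 derived.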", "units": {"IC50": "µM"}}
{"molecule": "O=C1C2C(c3ccc(Cl)cc3)OC3(C(=O)c4ccccc4C3=O)C2C(=O)N1c1cccc(C(F)(F)F)c1", "note": "(stereo not shown) [Compound 2011]", "IC50": "5 to 50"}
{"molecule": "O=C1C2C(c3ccc(Cl)cc3)OC3(C(=O)c4ccccc4C3=O)C2C(=O)N1c1ccc2c(c1)CCC2", "note": "(stereo not shown) [Compound 2012]", "IC50": "5 to 50"}
{"molecule": "Cc1cccc(C2OC3(C(=O)c4ccccc4C3=O)C3C(=O)N(c4ccc5c(c4)OCO5)C(=O)C23)c1", "note": "(stereo not shown) [Compound 2014]", "IC50": "5 to 50"}
{"molecule": "O=C1C2C(c3ccc(Cl)cc3)OC3(C(=O)c4ccccc4C3=O)C2C(=O)N1c1ccc(C(F)(F)F)cc1", "note": "(stereo not shown) [Compound 2015]", "IC50": "5 to 50"}
{"molecule": "CC(C)(C)OC(=O)Nc1ccc(N2C(=O)C3C(c4ccc(Cl)c(Cl)c4)OC4(C(=O)c5ccccc5C4=O)C3C2=O)cc1", "note": "(stereo not shown) [Compound 2018]", "IC50": "5 to 50"}
{"molecule": "Nc1ccc(N2C(=O)C3C(c4ccc(Cl)c(Cl)c4)OC4(C(=O)c5ccccc5C4=O)C3C2=O)cc1", "note": "(stereo not shown) [Compound 2019]", "IC50": "0.5 to 5"}
{"molecule": "O=C1C2C(c3ccc(Cl)c(Cl)c3)OC3(C(=O)c4ccccc4C3=O)C2C(=O)N1c1ccc(O)cc1", "note": "(stereo not shown) [Compound 2021]", "IC50": "< 0.5"}
{"molecule": "O=C(CNCc1ccc(N2C(=O)C3C(c4ccc(Cl)c(Cl)c4)OC4(C(=O)c5ccccc5C4=O)C3C2=O)cc1)NCCNc1cccc2c(S(=O)(=O)O)cccc12", "note": "(stereo not shown) [Compound 2022]", "IC50": "5 to 50"}
{"molecule": "O=C1C2C(c3ccc(Br)c(Br)c3)OC3(C(=O)c4ccccc4C3=O)C2C(=O)N1c1ccc(N2CCOCC2)cc1", "note": "(stereo not shown) [Compound 2023]", "IC50": "< 0.5"}
{"molecule": "CC(NC(=O)C1C(c2ccc(Cl)c(Cl)c2)OC23C(=O)c4ccccc4C2(O)OC(=O)C13)c1ccccc1", "note": "(stereo not shown) [Compound 3100]", "IC50": "5 to 50"}
{"molecule": "O=C(Nc1ccc2c(c1)OCO2)C1C(c2ccc3ccccc3c2)OC2(C(=O)c3ccccc3C2=O)C1C(=O)O", "note": "(stereo not shown) [Compound 4001]", "IC50": "0.5 to 5"}
{"molecule": "O=C(Nc1ccc2c(c1)OCO2)C1C(c2cc3ccccc3o2)OC2(C(=O)c3ccccc3C2=O)C1C(=O)O", "note": "(stereo not shown) [Compound 4002]", "IC50": "5 to 50"}
{"molecule": "O=C(Nc1ccc2c(c1)OCO2)C1C(c2ccc3c(c2)OCO3)OC2(C(=O)c3ccccc3C2=O)C1C(=O)O", "note": "(stereo not shown) [Compound 4003]", "IC50": "5 to 50"}
{"molecule": "CC(=O)c1ccc(NC(=O)C2C(c3ccc4ccccc4c3)OC3(C(=O)c4ccccc4C3=O)C2C(=O)O)cc1", "note": "(stereo not shown) [Compound 4004]", "IC50": "0.5 to 5"}
{"molecule": "CC(=O)c1ccc(NC(=O)C2C(C=Cc3cccc(Br)c3)OC3(C(=O)c4ccccc4C3=O)C2C(=O)O)cc1", "note": "(stereo not shown) [Compound 4006]", "IC50": "5 to 50"}
{"molecule": "CC(=O)c1ccc(NC(=O)C2C(C=Cc3ccccc3Br)OC3(C(=O)c4ccccc4C3=O)C2C(=O)O)cc1", "note": "(stereo not shown) [Compound 4007]", "IC50": "0.5 to 5"}
{"molecule": "CC(=O)c1ccc(NC(=O)C2C(C=Cc3cccc(Cl)c3Cl)OC3(C(=O)c4ccccc4C3=O)C2C(=O)O)cc1", "note": "(stereo not shown) [Compound 4010]", "IC50": "0.5 to 5"}
{"molecule": "CC(=O)c1ccc(NC(=O)C2C(C=Cc3ccccc3C)OC3(C(=O)c4ccccc4C3=O)C2C(=O)O)cc1", "note": "(stereo not shown) [Compound 4011]", "IC50": "5 to 50"}
{"molecule": "O=C(NCc1ccc2c(c1)OCO2)C1C(c2ccc(Cl)c(Cl)c2)OC2(C(=O)c3ccccc3C2=O)C1C(=O)O", "note": "(stereo not shown) [Compound 6001]", "IC50": "5 to 50"}
{"molecule": "Cc1ccc2c(c1)C(=O)C1(OC(c3ccc(Br)c(Br)c3)C(C(=O)Nc3ccc(-c4csnn4)cc3)C1C(=O)O)C2=O", "note": "(stereo not shown) [Compound A1009]", "IC50": "5 to 50"}
{"molecule": "CC(=O)c1ccc(NC(=O)C2C(c3ccc(Cl)c(Cl)c3)OC34C(=O)c5sc(C)cc5C3(O)OC(=O)C24)cc1", "note": "(stereo not shown) [Compound C1001]", "IC50": "5 to 50"}
{"molecule": "Cc1cc2c(s1)C(=O)C13OC(c4ccc(Br)c(Br)c4)C(C(=O)Nc4ccc(CNC(=O)OC(C)(C)C)cc4)C1C(=O)OC23O", "note": "(stereo not shown) [Compound C1003]", "IC50": "0.5 to 5"}
